According to patent publication US5807845A, “Therapeutic drug for acne vulgaris” (Senju Pharmaceutical Co., Ltd., priority 1996, dated 1998):
Where two headings read alike, the source gives them in different places.

Columns and labels:
[1] = test system: auricular sebaceous glands; assay: Inhibitory effect on the increase in hamster auricular sebaceous gland area (testosterone propionate-induced); type: in vivo, Syrian hamster; conditions: 0.2%, 20 μl to right auricle twice daily for 2 weeks
Method: It is known that, in acne vulgaris, the sebaceous gland function of the skin is enhanced by elevation of the androgen level. Therefore, the auricular sebaceous glands were expanded by subcutaneous administration of an androgen to hamsters and the inhibitory effect of the present compound on this enlargement was tested.
Female Syrian hamsters purchased from SLC Japan were used at the age of 7 weeks.
(2) 0.2% L-ascorbyl DL-α-tocopheryl phosphate potassium (abbreviation: EPC-K)
In 1 ml of sesame oil was dissolved 80 μg of testosterone propionate and the solution was administered subcutaneously to hamsters every other day for 2 weeks to enlarge auricular sebaceous glands. The test material was applied in a volume of 20 μl to the right auricle twice daily for 2 weeks from the beginning of the test. The normal group was subjected to neither treatment. After 2 weeks, the hamsters were sacrificed. The right auricle was bored with a 9 mm-diameter punch and the sebaceous gland area was measured by the whole mount technique. The data were statistically analyzed by Dunnett's test. The level of significance was p<0.05.

Toxicity, LD50 in rat = conditions: in vivo, intravenous
[2] = test system: Propionibacterium acnes (P. acnes); assay: Minimal growth inhibitory concentration (MIC) against Propionibacterium acnes; type: cell-based, Propionibacterium acnes (clinically isolated strain); conditions: for MIC: Cutibacterium acnes; on Growth of P. acnes: key: +: growth; -: growth inhibition
Method: The minimal growth inhibitory concentration (MIC) of the present compound against P. acnes, which is a factor in the onset of acne vulgaris and a member of the normal flora of the skin, was determined.
(1) EPC-K (dissolved in distilled water)
Doubling dilutions from 10 mg/ml to 1.953125×10^-2 mg/ml in final concentration
(2) dl-α-tocopherol and L-ascorbic acid (dissolved in a mixed solution which consists of HC-60 (trademark, manufactured by NOF corporation) and propyleneglycol)
Dubling dilutions from 5 mg/ml to 7.8125×10^-2 mg/ml in final concentration
(3) As control, the mixed solution mentioned above was tested.
This test was performed by the method published by Committee for the Study of Methods for MIC Determination in Anaerobic Bacteria.
A frozen clinically isolated strain of P. acnes was subcultured on GAM agar medium for 3 generations and suspended in saline at about 10^8 cells/ml. This cell suspension and a 100-fold dilution thereof were used as inocula.
To molten GAM agar medium was added 1/9 volume of the test solution of a varying concentration and, after thorough mixing, sensitivity assay plates ranging from 10 mg/ml to 1.953125×10^-2 mg/ml in final concentration were prepared (plate pH 6.64-7.10). Using a loopful of the inoculum, each plate was streaked and incubated anaerobically at 37° C. for at least 48 hours. The incubated plate was then observed grossly and the lowest concentration causing a definite inhibition of growth was regarded as the MIC.
The inoculum was serially diluted 10-fold down to […] and GAM medium was inoculated with each dilution. After culture, the number of colonies were similarly countered for confirmation of the cell count.

[3] = 0.15625 mg/ml, 10^6 CFU/ml (Table 3)
[4] = 0.15625 mg/ml, 10^8 CFU/ml (Table 3)
[5] = 0.3125 mg/ml, 10^6 CFU/ml (Table 3)
[6] = 0.3125 mg/ml, 10^8 CFU/ml (Table 3)
[7] = 0.625 mg/ml, 10^6 CFU/ml (Table 3)
[8] = 0.625 mg/ml, 10^8 CFU/ml (Table 3)
[9] = 1.25 mg/ml, 10^6 CFU/ml (Table 3)
[10] = 1.25 mg/ml, 10^8 CFU/ml (Table 3)
[11] = 2.5 mg/ml, 10^6 CFU/ml (Table 3)
[12] = 2.5 mg/ml, 10^8 CFU/ml (Table 3)
[13] = 5.0 mg/ml, 10^6 CFU/ml (Table 3)
[14] = 5.0 mg/ml, 10^8 CFU/ml (Table 3)
[15] = 7.8125 × 10^-2 mg/ml, 10^6 CFU/ml (Table 3)
[16] = 7.8125 × 10^-2 mg/ml, 10^8 CFU/ml (Table 3)
[17] = vitamins in HC-60/propyleneglycol mixed solution, cell counts 10^8 and 10^6 CFU/ml (Table 3), read-out: MIC

## Cc1c(C)c2c(c(C)c1OP(=O)(O)OC1=C(O)[C@@H]([C@@H](O)CO)OC1=O)CCC(C)(CCCC(C)CCCC(C)CCCC(C)C)O2 (mixture of isomers) [EPC-K, L-ascorbyl DL-α-tocopheryl phosphate potassium]
[1]; mean ± standard deviation (n = 7-8), p < 0.01 vs. methanol control
  Area (auricular sebaceous gland area): 3327 ± 225 μm^2
[1]; vs. methanol control
  % Inhibition of the increase in auricular sebaceous gland area: 72.5%
Toxicity, LD50 in rat
  LD50: ≥ 100 mg/kg
[2]; 0.15625 mg/ml, 10^6 CFU/ml (Table 2)
  Growth of P. acnes: +
[2]; 0.15625 mg/ml, 10^8 CFU/ml (Table 2)
  Growth of P. acnes: +
[2]; 0.3125 mg/ml, 10^6 CFU/ml (Table 2)
  Growth of P. acnes: -
[2]; 0.3125 mg/ml, 10^8 CFU/ml (Table 2)
  Growth of P. acnes: +
[2]; 0.625 mg/ml, 10^6 CFU/ml (Table 2)
  Growth of P. acnes: -
[2]; 0.625 mg/ml, 10^8 CFU/ml (Table 2)
  Growth of P. acnes: -
[2]; 1.25 mg/ml, 10^6 CFU/ml (Table 2)
  Growth of P. acnes: -
[2]; 1.25 mg/ml, 10^8 CFU/ml (Table 2)
  Growth of P. acnes: -
[2]; 2.5 mg/ml, 10^6 CFU/ml (Table 2)
  Growth of P. acnes: -
[2]; 2.5 mg/ml, 10^8 CFU/ml (Table 2)
  Growth of P. acnes: -
[2]; 5.0 mg/ml, 10^6 CFU/ml (Table 2)
  Growth of P. acnes: -
[2]; 5.0 mg/ml, 10^8 CFU/ml (Table 2)
  Growth of P. acnes: -
[2]; 10.0 mg/ml, 10^6 CFU/ml (Table 2)
  Growth of P. acnes: -
[2]; 10.0 mg/ml, 10^8 CFU/ml (Table 2)
  Growth of P. acnes: -
[2]; 1.953125 × 10^-2 mg/ml, 10^6 CFU/ml (Table 2)
  Growth of P. acnes: +
[2]; 1.953125 × 10^-2 mg/ml, 10^8 CFU/ml (Table 2)
  Growth of P. acnes: +
[2]; 3.90625 × 10^-2 mg/ml, 10^6 CFU/ml (Table 2)
  Growth of P. acnes: +
[2]; 3.90625 × 10^-2 mg/ml, 10^8 CFU/ml (Table 2)
  Growth of P. acnes: +
[2]; 7.8125 × 10^-2 mg/ml, 10^6 CFU/ml (Table 2)
  Growth of P. acnes: +
[2]; 7.8125 × 10^-2 mg/ml, 10^8 CFU/ml (Table 2)
  Growth of P. acnes: +
[2]; cell count 10^6 /ml, EPC-K dissolved in distilled water
  MIC: 312 mg/L
[2]; cell count 10^8 /ml, EPC-K dissolved in distilled water
  MIC: 625 mg/L

## Cc1c(C)c2c(c(C)c1O)CCC(C)(CCCC(C)CCCC(C)CCCC(C)C)O2 (racemic) [dl-α-Tocopherol, dl-α-tocopherol]
[2]; [3]
  Growth of P. acnes: +
[2]; [4]
  Growth of P. acnes: +
[2]; [5]
  Growth of P. acnes: +
[2]; [6]
  Growth of P. acnes: +
[2]; [7]
  Growth of P. acnes: +
[2]; [8]
  Growth of P. acnes: +
[2]; [9]
  Growth of P. acnes: +
[2]; [10]
  Growth of P. acnes: +
[2]; [11]
  Growth of P. acnes: +
[2]; [12]
  Growth of P. acnes: +
[2]; [13]
  Growth of P. acnes: +
[2]; [14]
  Growth of P. acnes: +
[2]; [15]
  Growth of P. acnes: +
[2]; [16]
  Growth of P. acnes: +
[2]; [17]
  MIC: ≥ 5000 mg/L

## O=C1O[C@H]([C@@H](O)CO)C(O)=C1O [L-Ascorbic acid, L-ascorbic acid]
[2]; [3]
  Growth of P. acnes: +
[2]; [4]
  Growth of P. acnes: +
[2]; [5]
  Growth of P. acnes: +
[2]; [6]
  Growth of P. acnes: +
[2]; [7]
  Growth of P. acnes: +
[2]; [8]
  Growth of P. acnes: +
[2]; [9]
  Growth of P. acnes: +
[2]; [10]
  Growth of P. acnes: +
[2]; [11]
  Growth of P. acnes: +
[2]; [12]
  Growth of P. acnes: +
[2]; [13]
  Growth of P. acnes: +
[2]; [14]
  Growth of P. acnes: +
[2]; [15]
  Growth of P. acnes: +
[2]; [16]
  Growth of P. acnes: +
[2]; [17]
  MIC: ≥ 5000 mg/L
